Source: article PMC8002893, “Influence of Complexation of Thiosemicarbazone Derivatives with Cu (II) Ions on Their Antitumor Activity against Melanoma Cells” (International Journal of Molecular Sciences, 2021)

How the values were obtained:
[1] = tested on: BJ human normal fibroblast cells; assay: MTT cell viability assay, BJ normal fibroblasts; type: cell-based; conditions: MTT test, 24 h treatment
Description: (§1) The evaluation of cytotoxicity of tested compounds was carried out on the G361, A375, and SK-MEL-28 human melanoma cells and BJ human normal fibroblast cells. The cell lines were obtained from American Type Culture Collection (ATCC, Manassas, VA, USA). The cells were cultured at 37 °C in the presence of 5% CO2 in atmosphere. The culture medium (Dulbecco’s Modified Eagle’s Medium for G361 and A375 and Eagle’s Minimum Essential Medium for SK-MEL-28 and BJ) was supplemented with 10% foetal bovine serum. The cells morphology was examined under inverted phase contrast microscope Nikon Eclipse Ti (Nikon, Tokyo, Japan). The authenticity of tested cell lines was verified by short tandem repeat (STR) genotyping in the Department of Forensic Medicine (Medical University of Lublin, Lublin, Poland).
(§2) The cells were seeded into 96-well plates (in concentration: BJ, A375, and SK-MEL-28—1 × 10^5 cells/mL, G361—1.5 × 10^5 cells/mL) and cultured until they reach 70–80% confluency. Then the cells were incubated with tested compounds and dacarbazine in concentrations ranging from 10 to 500 µM or DMSO as vehicle in control cultures for next 24 h (max. DMSO concentration <0.5%). The compounds cytotoxicity was evaluated with the MTT colorimetric method based on the ability of viable cells to the transformation of tetrazolium salts (3-[4,5-dimethylthiazol-2-yl]-2,5-) diphenyltetrazolium bromide, MTT) to purple formazan, by cellular dehydrogenases. After 24-h-incubation cell cultures were supplemented with 20 µL of 5 mg/mL MTT (Thermofisher, Waltham, MA, USA) stock in PBS (Corning, NY, USA), and the incubation was continued for 4 h at 37 °C. Next, the medium with MTT was removed, and the formed crystals were dissolved in 200 µL of DMSO (dimethyl sulfoxide, Avantor, Gliwice, Poland). The solution absorbency was measured at 570 nm, using a PowerWave™ xs microplate spectrophotometer (BioTek Instruments, Winooski, VT, USA). The experiment was performed three times with three replicates for each concentration of tested compounds. IC50 values were determined using the AAT Bioquest IC50 calculator [51]. On the basis of obtained IC50 values for normal and malignant cells, A375 cell line and three tested compounds (CuT1, Cu10, CuT16) were chosen for further investigation.

[2] = tested on: G361 human melanoma cells; assay: MTT cell viability assay, G361 melanoma; type: cell-based; conditions: G361, MTT test, 24 h treatment
Description: as §1, §2

[3] = tested on: A375 human melanoma cells; assay: MTT cell viability assay, A375 melanoma; type: cell-based; conditions: A375, MTT test, 24 h treatment
Description: as §1, §2

[4] = tested on: SK-MEL-28 human melanoma cells; assay: MTT cell viability assay, SK-MEL-28 melanoma; type: cell-based; conditions: SK-MEL-28, MTT test, 24 h treatment
Description: as §1, §2

Structure (SMILES): COc1ccc(C=NNC(=S)Nc2ccc(Cl)cc2)cc1OC [T16]
- IC50 ([1]; Homo sapiens, Fibroblast): > 500 µM
- IC50 ([2]; Homo sapiens, G-361): > 500 µM
- IC50 ([3]; Homo sapiens, A-375): > 500 µM
- IC50 ([4]; Homo sapiens): > 500 µM
- melting point: 200 to 202 °C

Structure (SMILES): CNC(=S)NN=C(C)c1ccc(N)cc1 [T4, 2-[1-(4-Aminophenyl)ethylidene]-N-methyl-hydrazine-1-carbothioamide]
- melting point: 170 to 172 °C

Structure (SMILES): S=C(NN=Cc1ccc(Br)cc1)Nc1ccccc1Cl [T9, 2-[(4-Bromophenyl)methylidene]-N-(2-chlorophenyl)hydrazine-1-carbothioamide]
- melting point: 209 to 211 °C

Structure (SMILES): S=C(NN=Cc1ccc(Cl)c(Cl)c1)Nc1ccccc1Cl.S=C(NN=Cc1ccc(Cl)c(Cl)c1)Nc1ccccc1Cl.[Cl-].[Cl-].[Cu+2] [CuT12]
- IC50 [1]: 42.9 ± 1.17 µM
- IC50 [2]: 157 ± 2.75 µM
- IC50 [3]: 40.5 ± 0.98 µM
- IC50 [4]: 46.1 ± 2.74 µM

Structure (SMILES): S=C(NN=Cc1ccc(Br)cc1)Nc1cccc(Cl)c1 [T13, 2-[(4-Bromophenyl)methylidene]-N-(3-chlorophenyl)hydrazine-1-carbothioamide]
- IC50 ([1]; Homo sapiens, Fibroblast): 412.8 ± 3.23 µM
- IC50 ([2]; Homo sapiens, G-361): 396 ± 6.74 µM
- IC50 ([3]; Homo sapiens, A-375): 389 ± 7.06 µM
- IC50 ([4]; Homo sapiens): 399 ± 4.64 µM
- melting point: 162 to 164 °C

Structure (SMILES): Cc1ccccc1NC(=S)NN=Cc1ccc(Cl)c(Cl)c1 [T8, 2-[(3,4-Dichlorophenyl)methylidene]-N-(2-methylphenyl)hydrazine-1-carbothioamide]
- melting point: 200 to 202 °C

Structure (SMILES): COc1ccc(C=NNC(=S)Nc2ccccc2C)cc1OC [T7, 2-[(3,4-Dimethoxyphenyl)methylidene]-N-(2-methylphenyl)hydrazine-1-carbothioamide]
- melting point: 205 to 206 °C

Structure (SMILES): S=C(NN=Cc1ccc(Cl)c(Cl)c1)Nc1cccc(Cl)c1 [T15, N-(3-Chlorophenyl)-2-[(3,4-dichlorophenyl)methylidene]hydrazine-1-carbothioamide]
- melting point: 210 to 212 °C

Structure (SMILES): S=C(NN=Cc1ccc(Cl)c(Cl)c1)Nc1ccc(Cl)cc1 [T17, N-(4-Chlorophenyl)-2-[(3,4-dichlorophenyl)methylidene]hydrazine-1-carbothioamide]
- melting point: 202 to 204 °C

Structure (SMILES): CC(=NNC(=S)Nc1ccccc1Cl)c1ccccc1 [T11, N-(2-Chlorophenyl)-2-(1-phenylethylidene)hydrazine-1-carbothioamide]
- melting point: 115 to 117 °C
